Reference: patent US20150150892A1, “METHODS AND PRODUCTS RELATED TO LUNG CANCER” (Massachusetts Institute of Technology, priority 2012, published 2015)

Tests used:
[1] = tested on: KP lung tumors; assay: CC3 immunohistochemistry in KP lung tumors; type: in vivo, mouse
Description: FIG. 4: Bortezomib induces apoptosis in KP lung tumors. (4A and 4B) H&E and CC3 immunohistochemistry staining (×200) in vehicle control- and bortezomib-treated KP (4A) and K (4B) lung tumors. (4C and 4D) quantification of CC3-positive cells in bortezomib-treated KP (4C) and K (4D) lung tumors at indicated time points. “0 hour” represents vehicle control-treated tumors. Error bars are SD (n>10 for each time point).
FIG. 5: Bortezomib increases survival in KP mice. (5A and 5B) Kaplan-Meier survival curve of vehicle control and bortezomib-treated KP (5A) and K (5B) mice. Arrows indicate weekly 1 mg/kg bortezomib regimen. (5C) quantification of lung tumor volume of control- and bortezomib-treated KP mice. From 10 weeks after Adeno-Cre infection, lungs were imaged by microCT to measure individual tumor volumes (n=4). Data points represent means of fold change and SD relative to 10 weeks (set to 1). Arrows indicate bortezomib injection. D, CC3 staining (×200) in lung tumors receiving 3 doses of control (“C”) and 1 final dose of bortezomib (“B,” left) or 4 doses of bortezomib (right). Tumors were harvested 48 hours after the last treatment (n=4).
FIG. 18: Bay-117082 induces apoptosis in KP lung tumors. (18A), H&E and cleaved caspase 3 (CC3) immunohistochemistry staining (200×) in vehicle control and Bay-117082 treated KP lung tumors (10 mg/kg, 48 hrs). (18B) Quantification of CC3 positive cells. Error bars are s.d. (p<0.05).
Mice were sacrificed by carbon dioxide asphyxiation. Lungs were inflated with 4% formalin (neutral buffered formalin), fixed overnight, and transferred to 70% ethanol. Lung lobes were embedded in paraffin and sectioned at 4 μm and stained with H&E for tumor pathologic study. For staining with anti-CC3 antibodies (#9661; Cell Signaling), lung tumor sections were dewaxed, rehydrated, and subjected to high-temperature antigen retrieval—10 minutes of boiling in a pressure cooker in 0.01 M citrate buffer, pH 6.0. […] The number of positive cells per tumor area was quantified using Bioquant software from >10 tumors in ≧3 mice per group (2).

[2] = cited from earlier work
[3] = tested on: NF-κB target genes in H2122 and H2009 cell lines; assay: QPCR of NF-κB target genes in human NSCLC cell lines; type: cell-based; conditions: 10 nM Bortezomib, 24 hours
Description: FIG. 8: Bortezomib inhibits NF-κB signaling in human NSCLC cells. H2122 (KRASG12C;TP53c176F/Q16L) (8A) and H2009 (KRASG12A;TP53R273L) (8B) cell lines were treated with vehicle control or 10 nM Bortezomib for 24 hours. NF-κB target gene expression was measured by QPCR. Error bars are s.d. (n=3). N.D. denotes not detectable. Mutation information is from the Sanger COSMIC database.
(§1) RNA was purified using TRIzol (Invitrogen), according to the manufacturer's instructions. One microgram of RNA was reverse transcribed using the High-Capacity cDNA Reverse Transcription Kit (Applied Biosystems). Real-time PCR (quantitative PCR) amplification was performed using Taqman probes (Applied Biosystems). Data were normalized to the Gapdh (mouse) or GAPDH (human) levels.

[4] = tested on: luciferase-tagged KP cells transplanted into immunocompetent recipient mice; assay: Orthotopic lung tumor model, survival and bioluminescence imaging; type: in vivo, mouse
Text: FIG. 6: Imaging bortezomib response and resistance in an orthotopic lung tumor model. (6A) experimental design. Lung cancer cells derived from KP tumors were infected with a retrovirus expressing luciferase and transplanted into immunocompetent recipient mice by tail vein injection. (6B) Kaplan-Meier survival curve of control and bortezomib-treated recipient mice (n=6; P=1.4×10−5). A total of 10,000 cells were transplanted, and treatment started after 35 days. (6C) representative bioluminescence imaging of recipient mice (n=6) treated with vehicle control or bortezomib, as in 6B. D0 refers to the first treatment. Arrows indicate weekly bortezomib regimen.
FIG. 7: The NF-κB inhibitor Bay-117082 leads to lung tumor regression in vivo. (7A) quantitative PCR analysis of NF-κB target gene expression in KP cells treated with 10 μM Bay-117082 for indicated hours. Error bars are SD (n=3). (7B) Bay-117082 treatment leads to lung tumor regression and delays tumor progression in the orthotopic lung tumor model. A total of 50,000 luciferase-tagged KP cells were transplanted into recipient mice (n=6), and treatment was started at 19 days after transplantation (set at D0). Mice were treated with vehicle control or 10 mg/kg Bay-117082 by i.p. injection, and imaged at the indicated time points. Arrows indicate Bay-117082 injections. (7C) Bay-117082 prolongs survival in the KP model (n=6; P=0.008). “i.p. dosing” indicates treatment with 3 doses per week.
At indicated time points, mice were scanned for 15 min under isoflurane anesthesia, using a small animal eXplore Locus microCT (GE Healthcare) at 45-μm resolution, 80 kV, with 450-mA current (47). Images were acquired and processed using GE eXplore software. Bioluminescence imaging was performed as previously described (48). Mice were imaged for 60 seconds, and signals in the lung were quantified using Xenogen software.
To facilitate imaging of the bortezomib treatment response, we adapted a transplantation-based orthotopic lung cancer mouse model (37). As outlined in FIG. 6A, we infected KP cell lines with a retrovirus expressing firefly luciferase. The cells were transplanted into immunocompetent recipient mice by i.v. injection, resulting in the development of in situ lung tumors that could be imaged and quantified by bioluminescence imaging.
To determine whether bortezomib therapy was effective in the orthotopic model, we transplanted 10,000 KP cells into host mice and treated the mice 5 weeks later, either with control or with a weekly 4-dose regimen of bortezomib (37).

[5] = tested on: NF-κB target genes regulating apoptosis and survival; assay: QPCR of NF-κB targets in Bortezomib-resistant KP cell line; type: cell-based, mouse; conditions: 5 nM Bortezomib, 24 hours
Description: A representative resistant cell line was treated with control or 5 nM Bortezomib for 24 hours. Gene expression level was measured by QPCR and normalized to control-treated cells (set to 1). Error bars are s.d. (n=3).
as §1

[6] = tested on: KP mice; assay: Kaplan-Meier survival of KP mice; type: in vivo, mouse; conditions: KP mice, bortezomib 1 mg/kg once a week for 4 weeks from 8 weeks after Adeno-Cre; control 76.8±10.6 days; P=0.001
Description: (5A and 5B) Kaplan-Meier survival curve of vehicle control and bortezomib-treated KP (5A) and K (5B) mice. Arrows indicate weekly 1 mg/kg bortezomib regimen. […] Arrows indicate bortezomib injection.
To initiate lung tumors, cohorts of K or KP mice of 129svJae background were infected with 2.5×10^7 plaque-forming units of Adeno-Cre (University of Iowa) by intranasal inhalation, as described previously (2, 28). Mice were given bortezomib (LC Labs) in PBS [0.5% dimethylsulfoxide (DMSO)] at 1 mg/kg body weight i.v., as indicated.
To analyze the long-term effects of bortezomib therapy, we investigated whether a 4-dose regimen of bortezomib (19) could prolong survival of tumor-bearing mice. Using a cohort of KP mice, we treated tumor-bearing animals 8 weeks after Adeno-Cre infection with bortezomib once a week for 4 weeks (FIG. 10A).

[7] = orthotopic model, weekly bortezomib

CC(C)C[C@H](NC(=O)[C@H](Cc1ccccc1)NC(=O)c1cnccn1)B(O)O [bortezomib, N-(2-pyrazine) carbonyl-L-phenylalanine-L-leucine boronic acid]
CC3 staining after a final dose in pretreated tumors ([1]; KP mice, 3 previous doses of bortezomib, sacrificed 48 hours after final dose): no longer demonstrated significant CC3 staining
number of apoptotic (CC3) cells ([1]; KP tumors, 48 hours after a single dose): increase in the number of apoptotic cells
time course of CC3+ cell number ([1]; KP tumors, single dose, time-course): peaked at 24 and 48 hours post treatment and diminished at 96 hours
half-life in vivo [2]: short half-life
expression of NF-κB target genes MYC, BCL2, XIAP [3]: downregulated
average survival ([4]; 10,000 KP cells transplanted, weekly 4-dose bortezomib from 5 weeks, control 47.0±2.0 days, P=1.4×10^−5): 64.0 ± 5.4 days
bioluminescence tumor signal at day 2 and day 4 ([4]; orthotopic model, after first bortezomib treatment): marked tumor regression
effect of a 4th dose [4, 7]: ineffective
lung tumor signal after the 2nd and 3rd treatments [4, 7]: still decreased or stabilized
NF-κB target genes regulating apoptosis and survival [5]: robust downregulation
survival [6]: 104.2 ± 19.8 days
